Measured values from patent US8835556B2, “Hydrolytically stable maleimide-terminated polymers” (priority 2002, dated 2014).

Conditions: buffer
Description: Typically, such hydrolysis evaluations are carried out at pH 7.5 in phosphate buffer at room temperature and are measured by observing the UV absorption of the maleimide ring.
The half-life of a polymer maleimide can be determined by measuring the concentration of the maleimide-terminated polymer over time using HPLC or by observing the UV absorption of the maleimide ring.
Using HPLC analysis, the rate of hydrolytic degradation of the maleimide ring of several exemplary maleimide-terminated mPEG polymers (average molecular weight 5000 Da) was explored.
The following linkages between the maleimide and the PEG polymer segment were evaluated: amidoethylene (L1-AMDE), amidopentamethylene (L1-AMPE), amidocyclohexylmethyl (L1-MCH), oxybutyl (L3-TEME), oxyhexyl (L3-HEXA), oxyethyl (L3-ET), and oxypropyl (L3-TME).
Hydrolysis studies were conducted on several exemplary stabilized PEG-maleimides as described above in Example 7.

Row | Substance | HALF-LIFE, IN HOURS [h] | Half-life [h]
1 | 1-(N-maleimidomethyl)-4-(methoxypoly(ethylene glycol)propionamidomethyl)cyclohexane | 20.6 | 
2 | 1-N-maleimidomethyl-3-(methoxypoly(ethylene glycol)propionamidomethyl)cyclohexane | 64.6 | 
3 | mPEG (5K DA)-propylmaleimide [mPEG-TME-MAL] | 11.5 | 11.5
